Experimental data taken from patent US11013780B2, “Methods of treating female infertility” (Myovant Sciences GmbH, priority 2016, dated 2021).
Where a SMILES comes first, the peptide text is derived from it. [ ]: non-standard residue; d: D form. Arg(Me) = CNC(=N)NCCC[C@H](N)C(=O)O; Hyp = O=C(O)[C@@H]1C[C@@H](O)CN1; azaGly = NNC(=O)O

Assays:
[1] = system: monkey KISS1R; assay: Intracellular Ca2+ mobilization (fluorometric imaging plate reader), monkey KISS1R; type: cell-based
Method: (§1) The effects of API-MA on intracellular Ca^2+ mobilization in KISS1R-expressing recombinant cells were evaluated by performing the fluorometric imaging plate reader assay.

[2] = Multiple-dose PK, SC bolus then continuous 13-day SC infusion, healthy European men; conditions: for Css / AUC(0-t) / Cmax: European men, geometric mean (% CV); for AUC(0-t): AUC (0-tlqc) (equal to AUC (0-24))
Method: Another study was a phase 1 clinical study of multiple-dose administration of API-MA. The study was conducted in France. It was a randomized, double-blind, placebo-controlled, parallel-group, ascending dose study of the safety, tolerability, plasma PK, and endocrine pharmacodynamic effects of API-MA administered as an SC bolus (0.1 mg) on day 1 followed by continuous SC infusion (i.e., 24 hr/day) from Day 2 to Day 14 (0.01, 0.1, 0.3, or 1.0 mg/day), which was expected to suppress testosterone.

[3] = target: human KISS1R (Homo sapiens, UniProt Q969F8); assay: Intracellular Ca2+ mobilization (fluorometric imaging plate reader), human KISS1R; type: cell-based; set-up: expressed in transfected cells; host or cells: Chinese hamster ovary dihydrofolate reductase negative cells
Method: as §1

[4] = male, human, plasma, sc, 0.1 mg, SC bolus 0.1 mg on Day 1, dosing group 0.01 mg/day
[5] = male, human, plasma, sc, 0.1 mg, SC bolus 0.1 mg on Day 1, dosing group 0.1 mg/day
[6] = male, human, plasma, sc, 0.1 mg, SC bolus 0.1 mg on Day 1, dosing group 0.3 mg/day
[7] = male, human, plasma, sc, 0.1 mg, SC bolus 0.1 mg on Day 1, dosing group 1.0 mg/day

Sequence of human KISS1R (Q969F8 whole entry): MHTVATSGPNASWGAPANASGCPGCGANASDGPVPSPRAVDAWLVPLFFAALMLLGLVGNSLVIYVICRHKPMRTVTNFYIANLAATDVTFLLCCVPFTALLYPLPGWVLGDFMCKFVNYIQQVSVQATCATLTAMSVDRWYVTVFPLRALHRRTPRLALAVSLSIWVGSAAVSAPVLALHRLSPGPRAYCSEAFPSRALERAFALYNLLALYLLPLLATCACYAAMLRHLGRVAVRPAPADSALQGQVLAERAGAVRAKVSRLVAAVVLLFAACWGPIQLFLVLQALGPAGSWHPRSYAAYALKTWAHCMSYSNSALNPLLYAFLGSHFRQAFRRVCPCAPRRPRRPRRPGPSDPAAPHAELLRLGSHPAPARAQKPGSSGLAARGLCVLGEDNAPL

CC(=O)O.CNC(=N)NCCC[C@H](NC(=O)[C@H](CC(C)C)NC(=O)NNC(=O)[C@H](Cc1ccccc1)NC(=O)[C@@H](NC(=O)[C@H](CC(N)=O)NC(=O)[C@@H]1C[C@@H](O)CN1C(=O)[C@@H](Cc1ccc(O)cc1)NC(C)=O)[C@@H](C)O)C(=O)N[C@@H](Cc1c[nH]c2ccccc12)C(N)=O [API-MA, 2-(N-Acetyl-D-tyrosyl-trans-4-hydroxy-L-prolyl-Lasparaginyl-L-threonyl-L-phenylalanyl)-hydrazinocarbonyl-L-leucyl-Nω-methyl-L-arginyl-L-tryptophanamide monoacetate] (Ac-[dY][Hyp]NTF[azaGly]L[Arg(Me)]W-NH2)
EC50 ([1]; CHO dhfr- cells expressing monkey KISS1R): 0.074 nM | Ratio of EC50 of API-MA to kisspeptin (45-54) ([1]; monkey KISS1R): 0.94 | Css ([2]; continuous 13-day SC INF 0.01 mg/day (Days 2-14)): 20.2 (34) pg/mL | Css ([2]; continuous 13-day SC INF 0.1 mg/day (Days 2-14)): 226 (17) pg/mL | Css ([2]; continuous 13-day SC INF 0.3 mg/day (Days 2-14)): 708 (19) pg/mL | Css ([2]; continuous 13-day SC INF 1.0 mg/day (Days 2-14)): 2280 (16) pg/mL | CL/F ([2]; male, human, plasma, sc, 0.01 mg/day): 343 mL/min | Tmax ([2]; male, human, plasma, sc, 0.1 mg): 30 min | AUC(0-t) [2, 4]: 5.08 ng·h/mL | AUC(0-t) [2, 5]: 4.28 ng·h/mL | AUC(0-t) [2, 6]: 4.68 ng·h/mL | AUC(0-t) [2, 7]: 4.05 ng·h/mL | Cmax [2, 4]: 1.87 ng/mL | Cmax [2, 5]: 1.59 ng/mL | Cmax [2, 6]: 1.65 ng/mL | Cmax [2, 7]: 1.29 ng/mL | CL/F ([2]; male, human, plasma, sc, 0.1 mg/day): 308 mL/min | CL/F ([2]; male, human, plasma, sc, 0.3 mg/day): 295 mL/min | CL/F ([2]; male, human, plasma, sc, 1 mg/day): 305 mL/min | EC50 [3]: 0.266 nM | Ratio of EC50 of API-MA to kisspeptin (45-54) ([3]; human KISS1R): 0.85
